pIC50: −log10 of the molar value.
Tests used:
[1] = target: T1, Glutamate receptor ionotropic, AMPA (Rattus norvegicus, UniProt P19490+P19491+P19492+P19493)
Description: Antagonistic activity against Ionotropic glutamate receptor AMPA using kainate-evoked current in Xenopus oocytes injected with rat brain mRNA

Mus musculus [2] = species: Mus musculus; assay: Anticonvulsant activity in male CD1 mice; format: functional
Glutamate NMDA receptor = assay: Binding affinity for N-methyl-D-aspartate glutamate receptor; format: protein-complex assay, Rattus norvegicus
[3] = target: T1, Glutamate receptor ionotropic, AMPA; remark: listed apart in the source
Description: Binding affinity for Ionotropic glutamate receptor AMPA

Mus musculus [4] = assay: Anticonvulsant activity against GABA receptor complex after intra peritoneal administration in CD1 mouse
Mus musculus [5] = assay: Anticonvulsant activity against glutamic acid receptor complex after subcutaneous administration in CD1 mouse; format: functional; conditions: sc
Mus musculus [6] = species: Mus musculus; assay: Compound was tested for the maximal electroshock effect in mice; format: functional
Rattus norvegicus [7] = assay: Effective dose in MES test in SD rat after i.p. administration; conditions: ip
Mus musculus [8] = assay: Anticonvulsant activity after subcutaneous administration in CD1 mouse
[9] = target: T1, Glutamate receptor ionotropic, AMPA; assay: Binding affinity against Ionotropic glutamate receptor AMPA in rat brain
Rattus norvegicus [10] = assay: Effective dose in MES test in SD rat after i.v. administration; format: functional; conditions: iv
Mus musculus [11] = assay: Effective dose in MES test in mouse after i.v. administration; format: functional; conditions: iv
Mus musculus [12] = assay: Effective dose in MES test in mouse after s.c. administration; format: functional; conditions: sc
Rattus norvegicus [13] = assay: Effective dose in MES test in SD rat after s.c. administration; format: functional; conditions: sc
Mus musculus [14] = assay: Effective dose in MES test in mouse after i.p. administration; conditions: ip
Mus musculus [15] = assay: Effective dose in mouse after i.p. administration; format: functional; conditions: ip

Question: With Oc1nc2c(n3ccnc13)Cc1ccccc1-2 as the compound, how does the pIC50 [1] read?
Answer: The pIC50 was 5.74.

Question: What about the ED50 (Mus musculus [2]) of the same compound?
Answer: The ED50 was 62 mg/kg.

Question: O=C(O)Cc1ccc2c(c1)Cc1c-2nc(O)c2nccn12 was tested. Which pIC50 [1] did it give?
Answer: Its pIC50 is 5.58.

Question: What about the pIC50 (Glutamate NMDA receptor) of the same compound?
Answer: Its pIC50 is < 5.00.

Question: What about the pIC50 [3] of the same compound?
Answer: The pIC50 was 5.00.

Question: For NS(=O)(=O)c1cccc2c1c([N+](=O)[O-])cc1nc(O)c(O)nc12 [NBQX], which ED50 (Mus musculus [2]) is on record?
Answer: Its ED50 is 36 mg/kg.

Question: How did the pIC50 [1] turn out when O=C(O)c1cccc2c1Cc1c-2nc(O)c2nccn12 was run?
Answer: Its pIC50 is 5.49.

Question: And the pIC50 (Glutamate NMDA receptor)?
Answer: The pIC50 was 4.68.

Question: And the pIC50 [3]?
Answer: The pIC50 was 5.46.

Question: Which results are given for O=C(O)Cc1cn2c3c(nc(O)c2n1)-c1cccc(CC(=O)O)c1C3?
Answer: pIC50 [1]: 7.64; pIC50 (Glutamate NMDA receptor): 5.68; ED50 (Mus musculus [2]): 2 mg/kg; pIC50 [3]: 8.40

Question: What does the source list for O=C(O)Cc1cccc2c1Cc1c-2nc(O)c2nc(C(=O)O)cn12?
Answer: pIC50 [1]: 8.30; ED50 (Mus musculus [4]): 1.7 mg/kg; ED50 (Mus musculus [5]): 1.5 mg/kg; pIC50 (Glutamate NMDA receptor): 5.14; ED50 (Mus musculus [6]): ≤ 2 mg/kg; ED50 (Rattus norvegicus [7]): 4.8 mg/kg; ED50 (Mus musculus [2]): 1.2 mg/kg; ED50 (Mus musculus [8]): ~16 mg/kg; pIC50 [9]: 8.40; pIC50 [3]: 7.74; ED50 (Rattus norvegicus [10]): 0.4 mg/kg; ED50 (Mus musculus [11]): 0.5 mg/kg; ED50 (Mus musculus [12]): 1 mg/kg; ED50 (Rattus norvegicus [13]): 1 mg/kg; ED50 (Mus musculus [14]): 1.2 mg/kg; ED50 (Mus musculus [15]): 0.8 mg/kg

Question: O=C(O)Cc1cccc2c1Cc1c-2nc(O)c2nccn12 was tested. Which pIC50 [1] did it give?
Answer: Its pIC50 is 6.98.

Question: And the pIC50 (Glutamate NMDA receptor)?
Answer: The pIC50 was < 5.00.

Question: What about the ED50 (Mus musculus [2]) of the same compound?
Answer: Its ED50 is > 80 mg/kg.

Question: And the pIC50 [3]?
Answer: The pIC50 was 7.05.

Question: How did the pIC50 [1] turn out when O=C(O)c1ccc2c(c1)Cc1c-2nc(O)c2nccn12 was run?
Answer: The pIC50 was 5.70.

Question: And the pIC50 (Glutamate NMDA receptor)?
Answer: Its pIC50 is 5.00.

Question: What about the ED50 (Mus musculus [2]) of the same compound?
Answer: The ED50 was > 80 mg/kg.

Question: And the pIC50 [3]?
Answer: The pIC50 was 6.21.

Question: O=c1[nH]c2cc(-n3ccnc3)c([N+](=O)[O-])cc2[nH]c1=O [YM-90K] was tested. Which pIC50 [1] did it give?
Answer: Its pIC50 is 6.59.

Question: What about the ED50 (Mus musculus [2]) of the same compound?
Answer: The ED50 was 12 mg/kg.

Question: Which results are given for CC(C(=O)O)c1cccc2c1Cc1c-2nc(O)c2nc(C(=O)O)cn12 (configuration not stated)?
Answer: pIC50 [1]: 7.28; pIC50 (Glutamate NMDA receptor): 5.39; ED50 (Mus musculus [2]): 19 mg/kg; pIC50 [3]: 6.35

Question: With O=C(O)Cc1ccc2c(c1)Cc1c-2nc(O)c2nc(C(=O)O)cn12 as the compound, how does the pIC50 [1] read?
Answer: Its pIC50 is 6.67.

Question: And the pIC50 (Glutamate NMDA receptor)?
Answer: Its pIC50 is < 5.00.

Question: And the ED50 (Mus musculus [2])?
Answer: Its ED50 is 16 mg/kg.

Question: What about the pIC50 [3] of the same compound?
Answer: The pIC50 was 6.21.

Question: O=C(O)[C@@H]1C[C@H]2C[C@@H](CCc3nn[nH]n3)CC[C@H]2CN1 [TEZAMPANEL ANHYDROUS] was tested. Which pIC50 [1] did it give?
Answer: Its pIC50 is 6.64.

Question: What about the ED50 (Mus musculus [2]) of the same compound?
Answer: The ED50 was 4 mg/kg.

Question: With O=C(O)c1cn2c3c(nc(O)c2n1)-c1ccccc1C3 as the compound, how does the pIC50 [1] read?
Answer: Its pIC50 is 7.54.

Question: What about the pIC50 (Glutamate NMDA receptor) of the same compound?
Answer: The pIC50 was 7.08.

Question: What about the ED50 (Mus musculus [2]) of the same compound?
Answer: Its ED50 is 50 mg/kg.

Reference: ChEMBL document CHEMBL1132845, “Synthesis and potent anticonvulsant activities of 4-oxo-imidazo[1,2-a]inden” (Bioorg Med Chem Lett, 2000)
